{"source": "patent US4880817A", "about": "“O-functionalized derivatives of substituted isoquinolin-3-ols having cardiotonic and/or phosphodiesterase fraction III inhibiting properties and/or renal vasodilating properties” (Ortho Pharmaceutical Corporation, priority 1987, dated 1989)"}
{"system": "adult mongrel dogs", "test": "Renal vasodilating activity in anesthetized dogs", "type": "in vivo, mongrel dog", "conditions": "Canis lupus familiaris, dose 6.2 mpk, relative to controls, read-out: HR: percent change in heart rate", "description": "(§1) Goldberg et al., J. Pharmacol. Exp. Ther., 163, 188 (1968), performed an investigation of the structural requirements for dopamine-like renal vasodilation of phenethylamines and apomorphine. The following procedure is a variation of the assay described in that report.\n(§2) Adult mongrel dogs were anesthetized and surgically prepared for electromagnetic measurement of renal artery blood flow. A carotid artery was cannulated for measuring arterial blood pressure and drugs were administered intravenously or intraarterially (via the renal artery). Heart rate was monitored with a cardiotachometer. Renal vascular resistance was calculated as the ratio of mean arterial blood pressure to renal artery blood flow. Dopamine was infused intravenously at 3 μg/kg/min for ten minutes (at an infusion rate of about 1 ml/min) to determine responsiveness of each dog to renal dopamine receptor stimulation. Cumulative dose-response data were obtained by infusing a compound of this invention at progressively increasing (usually three-fold) infusion rates, each dose being infused for five minutes. The maximum percent change from pre-drug control in renal artery blood flow (or in renal vascular resistance) was determined for each infusion dose.\n(§3) RBF, RVR, MABP, and HR values are percent changes in renal blood flow, renal vascular resistance, mean arterial blood pressure, and heart rate, respectively, relative to control values.", "units": {"change in vivo at 6.2 mg/kg": "%"}}
{"smiles": "CCOc1cc2c(C)nc(OC(C)=O)c([N+](=O)[O-])c2cc1OC", "note": "[Cmpd 3]", "change in vivo at 6.2 mg/kg": 2}
{"smiles": "CCOc1cc2c(C)nc(OC(=O)C(C)(C)C)c([N+](=O)[O-])c2cc1OC", "note": "[Cmpd 9]", "change in vivo at 6.2 mg/kg": 0}
{"smiles": "CCOc1cc2c([N+](=O)[O-])c(OC(C)=O)nc(C)c2cc1OC", "note": "[Cmpd 21]", "change in vivo at 6.2 mg/kg": 38}
{"smiles": "CCCCOc1cc2c(C)nc(OC(C)=O)c([N+](=O)[O-])c2cc1OC", "note": "[Cmpd 22]", "change in vivo at 6.2 mg/kg": 25}
{"system": "adult mongrel dogs", "test": "Renal vasodilating activity in anesthetized dogs", "type": "in vivo, mongrel dog", "conditions": "Canis lupus familiaris, dose 6.2 mpk, relative to controls, read-out: MABP: percent change in mean arterial blood pressure", "description": "as §1, §2, §3", "units": {"change in vivo at 6.2 mg/kg": "%"}}
{"smiles": "CCOc1cc2c(C)nc(OC(C)=O)c([N+](=O)[O-])c2cc1OC", "note": "[Cmpd 3]", "change in vivo at 6.2 mg/kg": -6}
{"smiles": "CCOc1cc2c(C)nc(OC(=O)C(C)(C)C)c([N+](=O)[O-])c2cc1OC", "note": "[Cmpd 9]", "change in vivo at 6.2 mg/kg": -26}
{"smiles": "CCOc1cc2c([N+](=O)[O-])c(OC(C)=O)nc(C)c2cc1OC", "note": "[Cmpd 21]", "change in vivo at 6.2 mg/kg": 3}
{"smiles": "CCCCOc1cc2c(C)nc(OC(C)=O)c([N+](=O)[O-])c2cc1OC", "note": "[Cmpd 22]", "change in vivo at 6.2 mg/kg": -12}
{"system": "adult mongrel dogs", "test": "Renal vasodilating activity in anesthetized dogs", "type": "in vivo, mongrel dog", "conditions": "Canis lupus familiaris, dose 6.2 mpk, relative to controls, read-out: RBF: percent change in renal blood flow", "description": "as §1, §2, §3", "units": {"change in vivo at 6.2 mg/kg": "%"}}
{"smiles": "CCOc1cc2c(C)nc(OC(C)=O)c([N+](=O)[O-])c2cc1OC", "note": "[Cmpd 3]", "change in vivo at 6.2 mg/kg": 61}
{"smiles": "CCOc1cc2c(C)nc(OC(=O)C(C)(C)C)c([N+](=O)[O-])c2cc1OC", "note": "[Cmpd 9]", "change in vivo at 6.2 mg/kg": 43}
{"smiles": "CCOc1cc2c([N+](=O)[O-])c(OC(C)=O)nc(C)c2cc1OC", "note": "[Cmpd 21]", "change in vivo at 6.2 mg/kg": 40}
{"smiles": "CCCCOc1cc2c(C)nc(OC(C)=O)c([N+](=O)[O-])c2cc1OC", "note": "[Cmpd 22]", "change in vivo at 6.2 mg/kg": 11}
{"system": "adult mongrel dogs", "test": "Renal vasodilating activity in anesthetized dogs", "type": "in vivo, mongrel dog", "conditions": "Canis lupus familiaris, dose 6.2 mpk, relative to controls, read-out: RVR: percent change in renal vascular resistance", "description": "as §1, §2, §3", "units": {"change in vivo at 6.2 mg/kg": "%"}}
{"smiles": "CCOc1cc2c(C)nc(OC(C)=O)c([N+](=O)[O-])c2cc1OC", "note": "[Cmpd 3]", "change in vivo at 6.2 mg/kg": -41}
{"smiles": "CCOc1cc2c(C)nc(OC(=O)C(C)(C)C)c([N+](=O)[O-])c2cc1OC", "note": "[Cmpd 9]", "change in vivo at 6.2 mg/kg": -48}
{"smiles": "CCOc1cc2c([N+](=O)[O-])c(OC(C)=O)nc(C)c2cc1OC", "note": "[Cmpd 21]", "change in vivo at 6.2 mg/kg": -25}
{"smiles": "CCCCOc1cc2c(C)nc(OC(C)=O)c([N+](=O)[O-])c2cc1OC", "note": "[Cmpd 22]", "change in vivo at 6.2 mg/kg": -22}
{"system": "adult mongrel dogs", "test": "Acute in vivo cardiotonic activity in anesthetized dogs", "set-up": "species or system mongrel dog", "conditions": "Canis lupus familiaris, dose 1.87 mpk, iv, relative to controls, read-out: CF: percent change in cardiac force", "description": "(§4) The acute in vivo cardiotonic activity of compounds prepared according to the present invention was determined according to a modification of the procedure described by Alousi et al., Circ.\n(§5) In particular, adult mongrel dogs were anesthetized with sodium pentobarbital and were artificially respired. Arterial pressure was monitored via a femoral artery, and the pulse pressure was used to trigger a cardiotachometer for heart rate. Left ventricular pressure was determined with a Millar catheter, and dP/dT (the change in ventricular pressure with time) was derived. Cardiac output was determined by measuring ascending aortic blood flow with an electromagnetic flow probe, and myocardial contractile force was measured with a Walton Brodie strain gauge sutured to the right ventricle. Lead II EKG was also recorded.\n(§6) A standard dose (10 μg/kg/min) of dopamine was administered to assess myocardial responsiveness.\n(§7) Compounds of the invention were administered by intravenous infusion and the effects on cardiovascular parameters were determined.", "units": {"change in vivo at 1.87 mg/kg": "%"}}
{"smiles": "CCCCOc1cc2c(C)nc(OC(C)=O)c([N+](=O)[O-])c2cc1OC", "note": "[Cmpd 22]", "change in vivo at 1.87 mg/kg": 43}
{"system": "adult mongrel dogs", "test": "Acute in vivo cardiotonic activity in anesthetized dogs", "set-up": "species or system mongrel dog", "conditions": "Canis lupus familiaris, dose 1.87 mpk, iv, relative to controls, read-out: HR: percent change in heart rate", "description": "as §4, §5, §6, §7", "units": {"change in vivo at 1.87 mg/kg": "%"}}
{"smiles": "CCCCOc1cc2c(C)nc(OC(C)=O)c([N+](=O)[O-])c2cc1OC", "note": "[Cmpd 22]", "change in vivo at 1.87 mg/kg": 2}
{"system": "adult mongrel dogs", "test": "Acute in vivo cardiotonic activity in anesthetized dogs", "set-up": "species or system mongrel dog", "conditions": "Canis lupus familiaris, dose 1.87 mpk, iv, relative to controls, read-out: MABP: percent change in mean arterial blood pressure", "description": "as §4, §5, §6, §7", "units": {"change in vivo at 1.87 mg/kg": "%"}}
{"smiles": "CCCCOc1cc2c(C)nc(OC(C)=O)c([N+](=O)[O-])c2cc1OC", "note": "[Cmpd 22]", "change in vivo at 1.87 mg/kg": -23}
{"system": "adult mongrel dogs", "test": "Acute in vivo cardiotonic activity in anesthetized dogs", "set-up": "species or system mongrel dog", "conditions": "Canis lupus familiaris, dose 1.87 mpk, iv, relative to controls, read-out: dP/dT: maximum percent change in left ventricular pressure with time", "description": "as §4, §5, §6, §7", "units": {"change in vivo at 1.87 mg/kg": "%"}}
{"smiles": "CCCCOc1cc2c(C)nc(OC(C)=O)c([N+](=O)[O-])c2cc1OC", "note": "[Cmpd 22]", "change in vivo at 1.87 mg/kg": 68}
{"target": "T1, Phosphodiesterase Fraction III (Canis lupus familiaris, UniProt A0A8I3NYE0)", "T1 construct": "The fraction III enzyme was isolated as an isomzyme from the crude canine heart homogenate; from tissue; host or cells: canine heart (crude homogenate, ion exchange chromatography)", "T1 sequence (A0A8I3NYE0 1-1135)": "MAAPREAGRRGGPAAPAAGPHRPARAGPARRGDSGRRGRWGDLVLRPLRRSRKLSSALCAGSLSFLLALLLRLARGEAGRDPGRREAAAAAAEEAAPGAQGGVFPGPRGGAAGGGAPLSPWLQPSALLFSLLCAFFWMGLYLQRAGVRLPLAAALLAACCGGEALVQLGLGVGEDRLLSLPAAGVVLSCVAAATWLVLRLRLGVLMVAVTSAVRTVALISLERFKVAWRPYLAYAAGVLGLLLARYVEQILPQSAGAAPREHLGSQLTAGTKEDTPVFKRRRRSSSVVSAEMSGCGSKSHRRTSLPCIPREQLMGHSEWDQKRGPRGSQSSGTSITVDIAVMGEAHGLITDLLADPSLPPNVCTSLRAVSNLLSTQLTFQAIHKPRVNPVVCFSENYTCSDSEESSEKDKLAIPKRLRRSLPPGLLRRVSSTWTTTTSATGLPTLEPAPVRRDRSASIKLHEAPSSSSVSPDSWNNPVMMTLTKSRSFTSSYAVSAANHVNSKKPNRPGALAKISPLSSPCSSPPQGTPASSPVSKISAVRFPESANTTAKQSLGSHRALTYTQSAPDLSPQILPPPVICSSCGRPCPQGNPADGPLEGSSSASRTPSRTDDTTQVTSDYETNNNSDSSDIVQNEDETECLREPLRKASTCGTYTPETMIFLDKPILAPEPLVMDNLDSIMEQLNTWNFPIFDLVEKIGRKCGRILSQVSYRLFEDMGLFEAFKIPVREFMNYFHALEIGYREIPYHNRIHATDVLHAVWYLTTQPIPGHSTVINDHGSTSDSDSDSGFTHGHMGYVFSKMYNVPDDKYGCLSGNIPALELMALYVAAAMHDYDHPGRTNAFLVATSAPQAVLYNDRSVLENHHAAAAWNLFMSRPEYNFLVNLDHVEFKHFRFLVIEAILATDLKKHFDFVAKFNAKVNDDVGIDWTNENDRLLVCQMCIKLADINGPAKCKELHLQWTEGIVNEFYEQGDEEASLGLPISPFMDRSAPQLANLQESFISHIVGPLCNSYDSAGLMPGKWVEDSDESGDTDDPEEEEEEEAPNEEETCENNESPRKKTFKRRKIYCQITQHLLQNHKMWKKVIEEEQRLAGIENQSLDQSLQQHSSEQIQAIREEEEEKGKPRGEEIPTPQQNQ", "test": "Inhibition of phosphodiesterase fraction III activity", "type": "biochemical, canine", "conditions": "cyclic AMP 0.10-1.0 μM, pH 7.4; enzyme from canine heart homogenate; read-out: IC50", "description": "Thompson et al. described a cyclic nucleotide phosphodiesterase assay in Advances in Cyclic Nucleotide Research, Brooker et al., eds., 10, 69-92 (1979). The following procedure is based on that published assay and measures the ability of compounds to inhibit cyclic nucleotide phosphodiesterase which is an enzyme that converts either cyclic AMP or cyclic GMP to the noncyclized AMP or GMP, respectively.\nCompounds were tested at various concentrations in the presence of cyclic AMP (0.10-1.0 μM containing 0.2 microCuries ^3 H-cyclic AMP), cyclic nucleotide phosphodiesterase, and 0.05M Tris-Cl buffer (pH 7.4, containing 5 mM magnesium chloride). After a specified time, the reaction was stopped by heating to 100° C. for 1 minute. After cooling, 0.10 ml of a solution containing snake venom (1 mg/ml) was added, and the reaction was allowed to proceed for 30 min. Termination of this reaction was accomplished by the addition of 1.0 ml of 33 percent DOWEX AGl×8 resin slurry (Dow Chemical Co., Midland, MI) to separate the product from the unconverted substrate. An aliquot was removed from the supernatant and analyzed by liquid scintillation spectrometry.\nThe fraction III enzyme was isolated as an isomzyme from the crude canine heart homogenate by ion exchange chromatography. The enzyme activity was designated fraction III since it is the third and last phosphodiesterase activity to be eluted from the chromatographic column. The fraction III enzyme has a relatively high affinity and specificity for the cyclic AMP.\nData are presented as the IC50 which is the concentration (in micromoles) of a compound that was required to inhibit 50 percent of the cyclic nucleotide phosphodiesterase activity.", "units": {"IC50": "µM"}}
{"smiles": "CCOc1cc2c(C)nc(OC(C)=O)c([N+](=O)[O-])c2cc1OC", "note": "[Cmpd 3]", "IC50": 6}
{"smiles": "CCOc1cc2c(C)nc(OC(=O)C(C)(C)C)c([N+](=O)[O-])c2cc1OC", "note": "[Cmpd 9]", "IC50": 100}
{"smiles": "CCOc1cc2c([N+](=O)[O-])c(OC(C)=O)nc(C)c2cc1OC", "note": "[Cmpd 21]", "IC50": 14}
{"smiles": "CCCCOc1cc2c(C)nc(OC(C)=O)c([N+](=O)[O-])c2cc1OC", "note": "[Cmpd 22]", "IC50": 3.5}
